Reference: patent publication US10172909B2, “Neuropeptide analogs, compositions, and methods for treating pain” (NeuroAdjuvants, Inc., priority 2010, dated 2019)
Square brackets hold non-standard residues; d marks the D form. Ends that are not written are not given here. Peptide text beside a SMILES is read from it. * marks the point of attachment. MeO(CH2CH2O)23CH2CH2CO = COCCOCCOCCOCCOCCOCCOCCOCCOCCOCCOCCOCCOCCOCCOCCOCCOCCOCCOCCOCCOCCOCCOCCOCCC(=O)*; α‑Lnn = alpha-linolenic acid on Lys, CC/C=C\C/C=C\C/C=C\CCCCCCCC(=O)*; NMeW = CN[C@@H](Cc1c[nH]c2ccccc12)C(=O)O; MPEG24 = PEG24 on Lys (Lys-MPEG_24); Palmitoyl = CCCCCCCCCCCCCCCC(=O)*; MPEG4 = PEG4 on Lys (Lys-MPEG_4); Ahx = NCCCCCC(=O)O; Sar = CNCC(=O)O

Key:
mice = assay: formalin test of acute and chronic hyperalgesia in mice; format: in vivo; set-up: AUC Acute: unit not given beside the values; conditions: mouse formalin test; for AUC Acute / AUC Inflammatory: i.p., licking AUC as percentage of control AUC, mean ± S.E.M., n=8
Experimental: Gal-93 and other MEGylated analogs were tested using the formalin test of acute and chronic hyperalgesia in mice. The formalin test was performed according to the method described by Tjolsen et al. (Tjolsen A, Berge O G, Hunskaar S, Rosland J H, Hole K. The Formalin Test: An Evaluation of the Method. Pain 53(2), 237; 1992). More specifically, an injection of 0.5% formalin is made into the plantar region of the right hind paw of a mouse. This elicits a distinct behavioral profile in response to the formalin injection characterized by the mouse licking the affected paw. The behavior is characteristically biphasic in nature. For example, immediately following the injection the mouse intensely licks the paw for approximately 5-10 min. This initial behavior is considered phase 1 (acute) and is thought to be mediated primarily by chemical activation of local C-fibers. The acute phase is followed by a brief latent (usually <5 min) period where there is little or no behavioral activity. A more prolonged (about 20 to 30 min) period of licking then ensues which constitutes phase 2 of the response (inflammatory). Prior to the administration of the test drug or vehicle, each mouse undergoes a 15-min conditioning period in one of several 6″ tall plexiglass cages (4″ diameter) that are placed in front of a mirror. It is in these tubes that mice are observed for the licking activity for the duration of the experiment. Following conditioning, the test substance is dosed i.p. after which the mouse is returned to its home tube. At the TPE of the test substance, formalin is injected sub-dermally into the plantar surface of the right hind foot in a volume of 20 μl with a 27 gauge stainless steel needle attached to a Hamilton syringe. The bevel of the needle is placed facing down toward the skin surface.
The cumulative length of licking for each 2-min time period was recorded. An animal receiving the requisite volume of vehicle was alternated with each mouse given the test peptide. Area under the curve (AUC) and subsequent percent of control for drug-treated animal groups (n=8) was determined using the GraphPad Prism Version 3.03. Total AUC was calculated for both the test substance and control groups for both the acute and inflammatory phases. The AUC for individual animals for each phase was also calculated and converted to percentage of total AUC of control. The average and S.E.M. for both the drug treated and control percentages were then calculated and tested for significant differences.

Sprague-Dawley rats = conditions: rat, in vivo, iv

(Sar)WTLNSAGYLLGPKK(Lys-α-Lnn)K(Lys-MPEG24)-NH2 ([Sar]WTLNSAGYLLGPKKK(α‑Lnn)KK(MPEG24)-NH2) [Gal-100]
AUC Acute (mice): 83.08 ± 13.34 | AUC Inflammatory (mice): 33.78 ± 3.04 | duration of licking, inflammatory phase (mice; result in words): significantly reduced

(N-Methyl-Trp)TLNSAGYLLGPKK(Lys-MPEG4)K-NH2 ([NMeW]TLNSAGYLLGPKKK(MPEG4)K-NH2) [Gal-104]
duration of licking, inflammatory phase (mice; result in words): significantly reduced

CC[C@H](C)[C@H](NC(=O)[C@H](Cc1ccc(O)cc1)NC(=O)[C@H](Cc1c[nH]cn1)NC(=O)[C@H](CCCNC(=N)N)NC(=O)[C@H](C)NC(=O)CCCCCNC(=O)[C@H](CCCCNC(=O)CCOCCOCCOCCOCCOCCOCCOCCOCCOCCOCCOCCOCCOCCOCCOCCOCCOCCOCCOCCOCCOCCOCCOCCOC)NC(=O)[C@H](CCCCN)NC(=O)[C@H](CCCCN)NC(=O)[C@H](Cc1ccc(O)cc1)NC(C)=O)C(=O)N[C@@H](CC(N)=O)C(=O)N[C@@H](CC(C)C)C(=O)N[C@H](C(=O)N[C@H](C(=O)N[C@@H](CCCNC(=N)N)C(=O)N[C@@H](CCC(N)=O)C(=O)N[C@@H](CCCNC(=N)N)C(=O)N[C@@H](Cc1ccc(O)cc1)C(N)=O)[C@@H](C)O)[C@@H](C)CC [NPY-B42] (Ac-YKKK(MeO(CH2CH2O)23CH2CH2CO)[Ahx]ARHYINLITRQRY-NH2)
HCT 30 min (Sprague-Dawley rats): 42 ± 2 | HCT 60 min (Sprague-Dawley rats): 42 ± 1 | Phenylephrine post-treatment response BP max (Sprague-Dawley rats): 161 ± 4 | Phenylephrine post-treatment response HR min (Sprague-Dawley rats): 291 ± 26 | difference from vehicle treated rats in any cardiovascular parameter measured (Sprague-Dawley rats): neither Gal-93 or NPY-B42 showed statistically significant difference from vehicle treated rats | glucose 30 min (Sprague-Dawley rats): 78 ± 5 | glucose 60 min (Sprague-Dawley rats): 73 ± 4 | plasma protein 30 min (Sprague-Dawley rats): 6.5 ± 0.4 | plasma protein 60 min (Sprague-Dawley rats): 6.8 ± 0.3 | temperature 30 min (Sprague-Dawley rats): 37.2 ± 0.2 | temperature 60 min (Sprague-Dawley rats): 36.9 ± 0.4

WTLNSAGYLLGPKK(Lys-MPEG4)K-NH2 (WTLNSAGYLLGPKKK(MPEG4)K-NH2) [Gal-103]
AUC Acute (mice): 66.3 ± 14.6 | AUC Inflammatory (mice): 75.6 ± 8.9

(Sar)WTLNSAGYLLGPKK(Lys-Pal)K(Lys-MPEG24)-NH2 ([Sar]WTLNSAGYLLGPKKK(Palmitoyl)KK(MPEG24)-NH2) [Gal-81]
AUC Acute (mice): 19.7 ± 7.2 | AUC Inflammatory (mice): 2.9 ± 2.2 | duration of licking, acute phase (mice; result in words): significantly reduced | duration of licking, inflammatory phase (mice; result in words): significantly reduced
